Data published in paper PMC4991483 (Oncotarget, 2016).
“Also recorded” adds a separate entry of the source.

Experiments:
STAT3 = details: cited from earlier work
[1] = HPLC-based glutathione (GSH) reactivity / chemical stability assay, 10 mM GSH with TCEP-HCl; details: 100 μM compound; for K (kobs), one phase decay / Tau, one phase decay: 10 mM TCEP-HCl, 50 mM HEPES pH 7.4; for reactivity with GSH: 10 h timescale
Description: (§3) From 10 mM compound stock solutions in DMSO 10 μL aliquots were transferred to an analytical HPLC vial containing 990 μL of reaction buffer (10.0 mM reduced GSH, 10.0 mM tris(2-carboxyethyl)phosphine hydrochloride (TCEP-HCl) and 50 mM HEPES buffered to pH 7.4) directly preceding 40.0 μL injections continued over a periodic time course. The process was automated by a Hewlett Packard Series 1100 analytical HPLC system fitted with an Agilent ZORBAX 3.5 μm Eclipse XDB-C18 column (23.0–24.0°C) under a linear elution gradient from H2O (double distilled and de-ionized to 18.2 MΩ cm) with 0.10 v/v % TFA to 100% HPLC grade CH3CN over 8.00 min followed by 2.00 min of sustained CH3CN under a 1.200 mL min^−1 flow rate. […] The data, measured in three replicates was fit to a one-phase exponential decay model (GraphPad PRISM) and kinetic parameters extracted from (1).
(1) A(t)=(A0−A∞)e^−kobs^t+A∞

[2] = target: recombinant, full-length STAT3 (Homo sapiens, UniProt P40763); assay: Incubation of recombinant full-length STAT3 with S3I-201, tryptic digestion and LC-MS/MS; details: 500 μM S3I-201 (80-fold molar excess), 1 h, 37°C
Sequence of recombinant, full-length STAT3 (P40763 whole entry): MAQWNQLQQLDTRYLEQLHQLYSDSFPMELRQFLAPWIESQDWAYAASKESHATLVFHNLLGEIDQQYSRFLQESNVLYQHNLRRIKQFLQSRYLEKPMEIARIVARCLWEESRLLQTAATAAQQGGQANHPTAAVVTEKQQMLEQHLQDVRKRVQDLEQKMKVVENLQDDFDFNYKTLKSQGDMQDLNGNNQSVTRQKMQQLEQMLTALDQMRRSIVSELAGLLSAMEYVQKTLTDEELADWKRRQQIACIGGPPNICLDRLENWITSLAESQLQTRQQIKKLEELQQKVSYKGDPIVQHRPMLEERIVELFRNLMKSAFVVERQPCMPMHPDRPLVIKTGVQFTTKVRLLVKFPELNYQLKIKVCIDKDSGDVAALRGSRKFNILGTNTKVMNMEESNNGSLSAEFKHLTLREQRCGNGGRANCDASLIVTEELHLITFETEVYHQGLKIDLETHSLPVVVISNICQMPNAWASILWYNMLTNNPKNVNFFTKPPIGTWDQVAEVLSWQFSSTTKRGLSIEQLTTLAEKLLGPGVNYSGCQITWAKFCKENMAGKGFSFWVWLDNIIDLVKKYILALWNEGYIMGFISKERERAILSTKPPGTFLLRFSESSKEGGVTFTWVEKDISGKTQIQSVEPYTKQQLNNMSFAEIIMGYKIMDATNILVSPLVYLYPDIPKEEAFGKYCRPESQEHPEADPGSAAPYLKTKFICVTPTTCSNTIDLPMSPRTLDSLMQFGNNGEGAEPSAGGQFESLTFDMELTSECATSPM
Description: The incubation was then quenched by the addition of dithiothreitol (DTT) to a final concentration of 0.5 mM and incubation at 55°C for 30 min. Free sulfhydryl groups were alkylated with 2-iodoacetamide (Sigma) at a final concentration of 1.5 mM for 45 min at room temperature. The samples were subjected to trypsin (Promega) digestion (0.5 μg of trypsin per reaction), lyophilized, re-suspended in 0.1% formic acid, and desalted using ZipTip C18 (EMD Millipore) prior to analysis. Samples were analyzed by LC-MS/MS on a nanoLC ultra HPLC system (Eksigent) coupled to a Thermo Scientific Orbitrap-Elite.
The aqueous and organic mobile phases consisted of 0.1% formic acid in water or CH3CN respectively. Organic mobile phase composition was varied over each hour long LC-MS/MS analysis as follows: 2% from 0 to 1 min, 10% to 35% from 1 to 35 min, 80% from 35.5 to 44.5 min, 2% from 45 to 60 min.
STAT3:DNA binding = details: approximate, reported value; read-out: approximate IC50 for the disruption of STAT3:DNA binding; cited from earlier work
activated STAT3 dimer = tested on: activated STAT3 dimer; parameters: method as in PMID 21618433; details: STAT3 EMSA assay; read-out: inhibition of activated STAT3 dimerization; cited from earlier work
purified STAT3 [3] = target: T1, purified STAT3 (Homo sapiens, UniProt P40763); assay: In vitro kinetic labeling of purified STAT3 protein by fluorescent probe (SDS-PAGE fluorescence); assay type: biochemical; details: 100 μM, 0-4 h, 4°C
T1 sequence (P40763 whole entry): as above
Description: 1 μg of purified STAT3 (SignalChem) protein was incubated with 100 μM 4a at 4°C. At the indicated time points the reaction was quenched with Laemmli loading buffer containing 1.43 M β-mercaptoethanol. Quenched samples were then subjected to 4-20% SDS-PAGE and imaged using the Chemi-Doc MP system (BIO-RAD). Following gel quantification (Image Lab software, BIO-RAD) the data points were plotted and visualized by GraphPad PRISM software.

MDA-MB-231 cell lysates = assay: Fluorescent labeling of MDA-MB-231 whole cell lysates (SDS-PAGE); assay type: biochemical; details: for fluorescent labeling of protein content of cell lysates, O-tosyl vs sulfonamide probe: 100 μM
Description: (§1) To investigate the reactivity of 4a in cell lysates, 5 × 10^6 MDA-MB-231 cells were lysed with 200 μL RIPA buffer (Sigma-Aldrich). Lysates were treated with 0-500 μM of compound for 16 h at 4°C and subjected to 4-20% SDS-PAGE. To investigate the in cellulo activity 2 × 10^6 MDA-MB-231 cells were seeded in […] dishes. The following day cells were treated with 0-200 μM of 4a at 37°C, 5% CO2 for 6 h. Cells were lysed using 200 μL RIPA buffer (Sigma-Aldrich) and the lysates were subjected to 4-20% SDS-PAGE. Gels were visualized using the Chemi-Doc MP system. (BIO-RAD). Total protein levels were visualized using Coomassie Brilliant Blue stain. An identical protocol was performed for 4b for direct comparison with 4a.

MDA-MB-231 cells = assay: Live cell dosing of MDA-MB-231 cells, fluorescent protein labeling (SDS-PAGE); assay type: cell-based; details: 0, 50, 100, 200 μM, 6 h, 37°C
Description: as §1

purified STAT3 [4] = target: T1, purified STAT3; assay: Gel-based STAT protein isoform labeling, STAT3; assay type: biochemical; details: 100 μM, 16 h, 4°C
Description: (§2) 1.0 μg of purified STAT3, STAT5, and STAT1 (SignalChem) were incubated with 100 uM of 4a for 16 h at 4°C. Samples were subjected to 4-20% SDS-PAGE and imaged using the Chemi-Doc MP (BIO-RAD).

purified STAT1 = target: T2, purified STAT1 (Homo sapiens, UniProt P42224); assay: Gel-based STAT protein isoform labeling, STAT1; assay type: biochemical; details: 100 μM, 16 h, 4°C
T2 construct: GST; purchased SignalChem S52-54G
T2 sequence (P42224 1-712 isoform P42224-2): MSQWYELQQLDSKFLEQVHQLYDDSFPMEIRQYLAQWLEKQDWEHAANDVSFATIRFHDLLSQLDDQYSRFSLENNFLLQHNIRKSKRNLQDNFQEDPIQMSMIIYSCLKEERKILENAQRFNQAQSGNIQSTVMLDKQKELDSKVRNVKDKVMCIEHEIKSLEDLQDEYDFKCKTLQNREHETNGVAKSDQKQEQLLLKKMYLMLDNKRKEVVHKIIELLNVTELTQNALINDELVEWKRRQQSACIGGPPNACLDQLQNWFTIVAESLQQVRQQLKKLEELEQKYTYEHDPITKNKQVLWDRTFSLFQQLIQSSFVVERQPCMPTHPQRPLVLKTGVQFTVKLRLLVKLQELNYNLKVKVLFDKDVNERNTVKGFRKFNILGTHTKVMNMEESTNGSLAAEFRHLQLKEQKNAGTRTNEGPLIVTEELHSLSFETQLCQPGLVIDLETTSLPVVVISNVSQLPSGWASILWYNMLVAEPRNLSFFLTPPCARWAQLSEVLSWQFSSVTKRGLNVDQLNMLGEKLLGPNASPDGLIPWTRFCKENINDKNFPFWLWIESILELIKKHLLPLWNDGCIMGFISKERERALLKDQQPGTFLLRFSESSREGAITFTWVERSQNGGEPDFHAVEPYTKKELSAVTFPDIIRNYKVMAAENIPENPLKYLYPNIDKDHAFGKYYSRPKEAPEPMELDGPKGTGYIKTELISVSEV
Description: as §2

[5] = tested on: pSTAT3 in MDA-MB-231 cells; assay: Immunoblotting for activated pSTAT3 levels in MDA-MB-231 cells; assay type: cell-based; details: increasing concentrations
Description: as §1
Lysates were reduced, boiled, subjected to 4-20% SDS-PAGE and transferred to LF-PVDF membranes. Membranes were blocked with 3% BSA and incubated with pSTAT3 (Abcam ab76315), STAT3 (Cell Signaling 4904) or B-Actin (Cell signaling 3700) at 4°C overnight. Membranes were then probed with either anti-mouse IgG Alexa Flour 488 (Cell Signaling 4408) or anti-rabbit IgG Alexa Fluor 647 (Cell Signaling 4414) for 1 h at room temperature. Membranes were visualized using the Chemi-Doc MP System (BIO-RAD).

purified STAT5 = target: T3, purified STAT5 (Homo sapiens, UniProt P42229); assay: Gel-based STAT protein isoform labeling, STAT5; assay type: biochemical; details: 100 μM, 16 h, 4°C
T3 construct: His; purchased SignalChem S56-54H
T3 sequence (P42229 1-794): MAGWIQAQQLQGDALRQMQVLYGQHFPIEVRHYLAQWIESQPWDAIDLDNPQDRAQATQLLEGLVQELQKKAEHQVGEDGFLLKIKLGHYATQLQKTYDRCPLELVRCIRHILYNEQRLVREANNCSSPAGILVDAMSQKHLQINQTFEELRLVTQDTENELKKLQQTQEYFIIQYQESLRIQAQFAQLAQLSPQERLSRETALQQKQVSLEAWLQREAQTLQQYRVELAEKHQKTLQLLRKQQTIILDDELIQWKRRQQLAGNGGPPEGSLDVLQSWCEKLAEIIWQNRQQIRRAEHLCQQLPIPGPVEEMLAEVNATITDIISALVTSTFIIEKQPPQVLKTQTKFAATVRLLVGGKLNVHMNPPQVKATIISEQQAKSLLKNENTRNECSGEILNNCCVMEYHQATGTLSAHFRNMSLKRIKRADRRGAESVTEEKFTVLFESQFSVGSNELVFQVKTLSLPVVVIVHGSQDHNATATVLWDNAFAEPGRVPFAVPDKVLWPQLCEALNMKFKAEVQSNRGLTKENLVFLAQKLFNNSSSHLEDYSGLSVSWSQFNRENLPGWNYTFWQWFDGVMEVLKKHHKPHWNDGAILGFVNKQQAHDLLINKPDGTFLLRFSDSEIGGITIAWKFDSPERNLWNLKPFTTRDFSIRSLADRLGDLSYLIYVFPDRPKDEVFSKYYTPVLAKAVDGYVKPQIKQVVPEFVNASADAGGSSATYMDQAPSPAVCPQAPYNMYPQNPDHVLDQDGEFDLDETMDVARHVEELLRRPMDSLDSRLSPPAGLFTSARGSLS
Description: as §2

glutathione (GSH) = assay: physchem; details: HEPES buffer with reduced glutathione (GSH) and TCEP-HCl, pH 7.4
Description: as §3
(1) A(t)=(A0−A∞)e^−kobs^t+A∞

Compound | K (kobs), one phase decay [1] | Tau, one phase decay [1] | reactivity with GSH [1] | half-life at 100 μM (glutathione (GSH)) | further results
C[C@@H]1C=C2C(=O)O[C@@H]3CC[C@H](C1)[C@]23O [Galiellalactone] | – | – | – | – | cysteine residues of STAT3 covalently modified (MS/MS analysis) (STAT3): covalently modified three cysteine residues (367, 468, and 542)
Cc1ccc(S(=O)(=O)OCC(=O)Nc2ccc(C(=O)O)c(O)c2)cc1 [S3I-201] | 2.735 h⁻¹ | 0.3657 | – | – | cysteine residues of STAT3 covalently modified (LC-MS/MS) [2]: covalently modified Cys108, Cys259, Cys367, Cys542, and Cys687; also recorded: five specific sites of modification, cysteine's 108, 259, 367, 542, and 687; also recorded: Cys residues (418, 426, and 712) were not alkylated; IC50 (STAT3:DNA binding): ~100 µM; IC50 (activated STAT3 dimer): 86 µM
Cc1ccc(S(=O)(=O)OCC(=O)N(Cc2cn(CCOCCOCCOCCNS(=O)(=O)c3cccc4c(N(C)C)cccc34)nn2)c2ccc(C(=O)O)c(O)c2)cc1 [4a] | – | – | – | – | fluorescent labeling of purified STAT3 over time course (purified STAT3 [3]): time dependent increase in fluorescent signal; fluorescent labeling of protein content of cell lysates (MDA-MB-231 cell lysates; 0, 100, 250, 500 μM, 16 h, 4°C): pronounced, non-specific, global labeling of the protein content; fluorescent labeling of protein content of cell lysates, O-tosyl vs sulfonamide probe (MDA-MB-231 cell lysates): promiscuously modified; fluorescent labeling of intracellular proteins in whole cells (MDA-MB-231 cells): increasing levels of fluorescent intensities following the dose of reporter; fluorescent labeling of intracellular proteins in whole cells (MDA-MB-231 cells; listed as DB-6-055): non-specifically and globally alkylated intracellular proteins; fluorescent labeling of purified STAT3 (purified STAT3 [4]): non-specific fluorescent labeling of all three STAT isoforms; fluorescent labeling of purified STAT1 (purified STAT1): non-specific fluorescent labeling of all three STAT isoforms; pSTAT3 levels (immunoblot) [5]: dose-dependent decrease in pSTAT3 levels; fluorescent labeling of purified STAT5 (purified STAT5): non-specific fluorescent labeling of all three STAT isoforms
Cc1ccccc1CN(CC(=O)N(Cc1ccc(C2CCCCC2)cc1)c1ccc(C(=O)O)c(O)c1)S(=O)(=O)c1ccc(C(F)(F)F)cc1 [BP-5-087] | 0.1348 h⁻¹ | 7.417 | negligible reactivity with GSH | 5.14 h | –
CN(CC(=O)N(Cc1ccc(C2CCCCC2)cc1)c1ccc(C(=O)O)c(O)c1)S(=O)(=O)c1c(F)c(F)c(F)c(F)c1F [BP-1-102] | 0.5322 h⁻¹ | 1.879 | – | – | –
Cc1ccc(S(=O)(=O)N(C)CC(=O)N(Cc2ccc(C3CCCCC3)cc2)c2ccc(C(=O)O)c(O)c2)cc1 [SF-1-066] | ~ 16.95 h^−1 | ~ 0.05898 | negligible reactivity with GSH | ~0.0409 h | –
O=[N+]([O-])c1ccc2c(c1)S(=O)(=O)C=C2 [Stattic] | – | – | – | – | cysteine residues of STAT3 modified (STAT3): Cys251, 259, 367, and 426
CN(CC(=O)N(Cc1ccc(C2CCCCC2)cc1)c1ccc(C(=O)O)cc1)S(=O)(=O)c1c(F)c(F)c(F)c(F)c1F [SH-4-054] | 0.5147 h⁻¹ | 1.943 | – | – | –
Cc1ccc(S(=O)(=O)NCC(=O)N(Cc2cn(CCOCCOCCOCCNS(=O)(=O)c3cccc4c(N(C)C)cccc34)nn2)c2ccc(C(=O)O)c(O)c2)cc1 [4b] | – | – | – | – | fluorescent labeling of protein content of cell lysates, O-tosyl vs sulfonamide probe (MDA-MB-231 cell lysates): no observable fluorescent enhancement
Cc1ccc(S(=O)(=O)NCC(=O)Nc2ccc(C(=O)O)c(O)c2)cc1 [DB-5-112] | 2.725e-05 h⁻¹ | 36701 | no reactivity toward GSH | 25400 h | –
